# Assay results reported in patent US11911361B2, “Stable cannabinoid formulations” (priority 2014, dated 2024).
# Tests used:
# [1] = clinical; conditions: human, in vivo, po, 20 mg/kg, single 20 mg/kg oral dose of cannabidiol solution, mean; for CL/F / Vd/F: cannabidiol; for half-life: t1/2, cannabidiol
# Procedure: (§1) An open label, randomized, single-dose, two-period, two-way crossover food-effect study was conducted on healthy subjects. […] Twenty-four (24) subjects were enrolled in the study and each were subjected to the fasted and fed treatment arms in separate periods followed by a 7-day wash-out period. For pharmacokinetic analysis, nominal time and default lambda-z selections were used. All below quantifiable limit values were set to zero and all subjects were included in the analysis.
# (§2) Data from 13 subjects from the fasted treatment and 24 subject from the fed treatment were included in the pharmacokinetic and statistical analyses.
# [2] = test system: maximal electroshock-induced seizures; assay: Maximal electroshock test (MES), mice; conditions: for MES N/F (animals protected/tested): mice
# [3] = Pharmacokinetic food-effect study, single 20 mg/kg dose, healthy subjects (Example 17); conditions: for AUC / AUC(0-t) / AUC(0-inf) / Cmax / Tmax: human, in vivo, po, 20 mg/kg; for AUC: AUC0, cannabidiol; for Tmax: median (min, max)
# Procedure: as §1, §2
# [4] = cannabidiol, single 20 mg/kg oral dose of cannabidiol solution, fasted, mean
# [5] = cannabidiol, single 20 mg/kg oral dose of cannabidiol solution, fed, mean
compound,measurement,setting,value
"C=C(C)[C@@H]1CCC(C)=C[C@H]1c1c(O)cc(CCCCC)cc1O [cannabidiol, (−)-trans-2-p-mentha-1,8-dien-3-yl-5-pentylresorcinol]",CL/F,[1]; fasted,1140 mL/min/kg
same,CL/F,[1]; fed,36.2 mL/min/kg
same,Vd/F,[1]; fasted,2680 L/kg
same,Vd/F,[1]; fed,133 L/kg
same,half-life,[1]; fasted,27.9 h
same,half-life,[1]; fed,42.3 h
same,MES N/F (animals protected/tested),"[2]; Anticonvulsant Screening, intraperitoneal, 10 mg/kg, 0.5 h, ethanol:polyethoxylated castor oil:PBS",0/4
same,MES N/F (animals protected/tested),"[2]; Anticonvulsant Screening, intraperitoneal, 10 mg/kg, 0.5 h, methylcellulose",0/4
same,MES N/F (animals protected/tested),"[2]; Anticonvulsant Screening, intraperitoneal, 10 mg/kg, 1.0 h, ethanol:polyethoxylated castor oil:PBS",0/4
same,MES N/F (animals protected/tested),"[2]; Anticonvulsant Screening, intraperitoneal, 10 mg/kg, 1.0 h, methylcellulose",0/4
same,MES N/F (animals protected/tested),"[2]; Anticonvulsant Screening, intraperitoneal, 10 mg/kg, 2.0 h, ethanol:polyethoxylated castor oil:PBS",0/4
same,MES N/F (animals protected/tested),"[2]; Anticonvulsant Screening, intraperitoneal, 10 mg/kg, 2.0 h, methylcellulose",0/4
same,MES N/F (animals protected/tested),"[2]; Anticonvulsant Screening, intraperitoneal, 30 mg/kg, 0.5 h, ethanol:polyethoxylated castor oil:PBS",0/4
same,MES N/F (animals protected/tested),"[2]; Anticonvulsant Screening, intraperitoneal, 30 mg/kg, 0.5 h, methylcellulose",0/4
same,MES N/F (animals protected/tested),"[2]; Anticonvulsant Screening, intraperitoneal, 30 mg/kg, 1.0 h, ethanol:polyethoxylated castor oil:PBS",1/4
same,MES N/F (animals protected/tested),"[2]; Anticonvulsant Screening, intraperitoneal, 30 mg/kg, 1.0 h, methylcellulose",0/4
same,MES N/F (animals protected/tested),"[2]; Anticonvulsant Screening, intraperitoneal, 30 mg/kg, 2.0 h, ethanol:polyethoxylated castor oil:PBS",0/4
same,MES N/F (animals protected/tested),"[2]; Anticonvulsant Screening, intraperitoneal, 30 mg/kg, 2.0 h, methylcellulose",0/4
same,MES N/F (animals protected/tested),"[2]; Anticonvulsant Screening, intraperitoneal, 100 mg/kg, 0.5 h, ethanol:polyethoxylated castor oil:PBS",0/4
same,MES N/F (animals protected/tested),"[2]; Anticonvulsant Screening, intraperitoneal, 100 mg/kg, 0.5 h, methylcellulose",0/4
same,MES N/F (animals protected/tested),"[2]; Anticonvulsant Screening, intraperitoneal, 100 mg/kg, 1.0 h, ethanol:polyethoxylated castor oil:PBS",2/4
same,MES N/F (animals protected/tested),"[2]; Anticonvulsant Screening, intraperitoneal, 100 mg/kg, 1.0 h, methylcellulose",1/4
same,MES N/F (animals protected/tested),"[2]; Anticonvulsant Screening, intraperitoneal, 100 mg/kg, 2.0 h, ethanol:polyethoxylated castor oil:PBS",1/4
same,MES N/F (animals protected/tested),"[2]; Anticonvulsant Screening, intraperitoneal, 100 mg/kg, 2.0 h, methylcellulose",2/4
same,MES N/F (animals protected/tested),"[2]; ED50 Biological Response (Table 57), 200 mg/kg, 2 h, methylcellulose",5/8
same,MES N/F (animals protected/tested),"[2]; ED50 Biological Response (Table 57), 250 mg/kg, 2 h, methylcellulose",4/8
same,MES N/F (animals protected/tested),"[2]; ED50 Biological Response (Table 57), 350 mg/kg, 2 h, methylcellulose",3/8
same,MES N/F (animals protected/tested),"[2]; ED50 Biological Response (Table 57), 400 mg/kg, 2 h, methylcellulose",3/8
same,MES N/F (animals protected/tested),"[2]; ED50 Biological Response (Table 57), 450 mg/kg, 2 h, methylcellulose",6/8
same,MES N/F (animals protected/tested),"[2]; ED50 Biological Response (Table 57), 500 mg/kg, 2 h, methylcellulose",8/8
same,MES N/F (animals protected/tested),"[2]; ED50 Biological Response (Table 59), 75 mg/kg, 2 h, ethanol:polyethoxylated castor oil:PBS",1/8
same,MES N/F (animals protected/tested),"[2]; ED50 Biological Response (Table 59), 95 mg/kg, 2 h, ethanol:polyethoxylated castor oil:PBS",5/8
same,MES N/F (animals protected/tested),"[2]; ED50 Biological Response (Table 59), 120 mg/kg, 2 h, ethanol:polyethoxylated castor oil:PBS",7/8
same,MES N/F (animals protected/tested),"[2]; ED50 Biological Response (Table 59), 150 mg/kg, 2 h, ethanol:polyethoxylated castor oil:PBS",8/8
same,ED50,[2]; Mus musculus,92.2 mg/kg
same,MES N/F (animals protected/tested),"[2]; Tables 57/58, 300 mg/kg, 2 h, methylcellulose",4/8
same,MES N/F (animals protected/tested),"[2]; Time to Peak Effect (Table 58), 300 mg/kg, 0.25 h, methylcellulose",0/4
same,MES N/F (animals protected/tested),"[2]; Time to Peak Effect (Table 58), 300 mg/kg, 0.5 h, methylcellulose",1/4
same,MES N/F (animals protected/tested),"[2]; Time to Peak Effect (Table 58), 300 mg/kg, 1 h, methylcellulose",1/4
same,MES N/F (animals protected/tested),"[2]; Time to Peak Effect (Table 58), 300 mg/kg, 4 h, methylcellulose",2/4
same,ED50,[2]; methylcellulose solvent,could not be calculated
same,animals protected / tested,"[2]; methylcellulose solvent, 0.5 hr",¼
same,animals protected / tested,"[2]; methylcellulose solvent, 1 hr",¼
same,animals protected / tested,"[2]; methylcellulose solvent, 2 hr",4/8
same,animals protected / tested,"[2]; methylcellulose solvent, 4 hr",2/4
same,AUCextrap,[3]; [4],3.57%
same,Clast,[3]; [4],0.867 ng/mL
same,Tlast,[3]; [4],120.01 h
same,λz,[3]; [4],0.0257 h⁻¹
same,AUCextrap,[3]; [5],3.84%
same,Clast,[3]; [5],6.36 ng/mL
same,Tlast,[3]; [5],120.00 h
same,λz,[3]; [5],0.0165 h⁻¹
same,AUC,"[3]; single 20 mg/kg oral, fasted, mean ± SD",0.325 ± 1.17 ng·h/mL
same,AUC,"[3]; single 20 mg/kg oral, fed, mean ± SD",0.229 ± 0.636 ng·h/mL
same,AUC(0-t),"[3]; AUC0-0.25, cannabidiol, single 20 mg/kg oral, fasted, mean ± SD",0.363 ± 1.31 ng·h/mL
same,AUC(0-t),"[3]; AUC0-0.25, cannabidiol, single 20 mg/kg oral, fed, mean ± SD",0.498 ± 0.874 ng·h/mL
same,AUC(0-t),"[3]; AUC0-0.5, cannabidiol, single 20 mg/kg oral, fasted, mean ± SD",0.584 ± 1.33 ng·h/mL
same,AUC(0-t),"[3]; AUC0-0.5, cannabidiol, single 20 mg/kg oral, fed, mean ± SD",2.45 ± 3.38 ng·h/mL
same,AUC(0-t),"[3]; AUC0-0.75, cannabidiol, single 20 mg/kg oral, fasted, mean ± SD",1.25 ± 1.34 ng·h/mL
same,AUC(0-t),"[3]; AUC0-0.75, cannabidiol, single 20 mg/kg oral, fed, mean ± SD",7.48 ± 11.2 ng·h/mL
same,AUC(0-t),"[3]; AUC0-1, cannabidiol, single 20 mg/kg oral, fasted, mean ± SD",1.93 ± 1.62 ng·h/mL
same,AUC(0-t),"[3]; AUC0-1, cannabidiol, single 20 mg/kg oral, fed, mean ± SD",21.8 ± 40 ng·h/mL
same,AUC(0-t),"[3]; AUC0-1.5, cannabidiol, single 20 mg/kg oral, fasted, mean ± SD",2.79 ± 2.14 ng·h/mL
same,AUC(0-t),"[3]; AUC0-1.5, cannabidiol, single 20 mg/kg oral, fed, mean ± SD",128 ± 215 ng·h/mL
same,AUC(0-t),"[3]; AUC0-2, cannabidiol, single 20 mg/kg oral, fasted, mean ± SD",4.14 ± 2.75 ng·h/mL
same,AUC(0-t),"[3]; AUC0-2, cannabidiol, single 20 mg/kg oral, fed, mean ± SD",269 ± 381 ng·h/mL
same,AUC(0-t),"[3]; AUC0-2.5, cannabidiol, single 20 mg/kg oral, fasted, mean ± SD",5.38 ± 4.09 ng·h/mL
same,AUC(0-t),"[3]; AUC0-2.5, cannabidiol, single 20 mg/kg oral, fed, mean ± SD",424 ± 547 ng·h/mL
same,AUC(0-t),"[3]; AUC0-3, cannabidiol, single 20 mg/kg oral, fasted, mean ± SD",5.88 ± 3.99 ng·h/mL
same,AUC(0-t),"[3]; AUC0-3, cannabidiol, single 20 mg/kg oral, fed, mean ± SD",535 ± 675 ng·h/mL
same,AUC(0-t),"[3]; AUC0-4, cannabidiol, single 20 mg/kg oral, fasted, mean ± SD",6.62 ± 3.85 ng·h/mL
same,AUC(0-t),"[3]; AUC0-4, cannabidiol, single 20 mg/kg oral, fed, mean ± SD",812 ± 874 ng·h/mL
same,AUC(0-t),"[3]; AUC0-6, cannabidiol, single 20 mg/kg oral, fasted, mean ± SD",12 ± 9.29 ng·h/mL
same,AUC(0-t),"[3]; AUC0-6, cannabidiol, single 20 mg/kg oral, fed, mean ± SD",1090 ± 886 ng·h/mL
same,AUC(0-t),"[3]; AUC0-8, cannabidiol, single 20 mg/kg oral, fasted, mean ± SD",22.9 ± 39.3 ng·h/mL
same,AUC(0-t),"[3]; AUC0-8, cannabidiol, single 20 mg/kg oral, fed, mean ± SD",819 ± 590 ng·h/mL
same,AUC(0-t),"[3]; AUC0-12, cannabidiol, single 20 mg/kg oral, fasted, mean ± SD",14.7 ± 10.2 ng·h/mL
same,AUC(0-t),"[3]; AUC0-12, cannabidiol, single 20 mg/kg oral, fed, mean ± SD",372 ± 338 ng·h/mL
same,AUC(0-t),"[3]; AUC0-16, cannabidiol, single 20 mg/kg oral, fasted, mean ± SD",9.76 ± 4.79 ng·h/mL
same,AUC(0-t),"[3]; AUC0-16, cannabidiol, single 20 mg/kg oral, fed, mean ± SD",112 ± 133 ng·h/mL
same,AUC(0-t),"[3]; AUC0-24, cannabidiol, single 20 mg/kg oral, fasted, mean ± SD",5.45 ± 2.76 ng·h/mL
same,AUC(0-t),"[3]; AUC0-24, cannabidiol, single 20 mg/kg oral, fed, mean ± SD",34.3 ± 11.7 ng·h/mL
same,AUC(0-t),"[3]; AUC0-36, cannabidiol, single 20 mg/kg oral, fasted, mean ± SD",5 ± 3.78 ng·h/mL
same,AUC(0-t),"[3]; AUC0-36, cannabidiol, single 20 mg/kg oral, fed, mean ± SD",20.7 ± 5.11 ng·h/mL
same,AUC(0-t),"[3]; AUC0-48, cannabidiol, single 20 mg/kg oral, fasted, mean ± SD",2.66 ± 2.4 ng·h/mL
same,AUC(0-t),"[3]; AUC0-48, cannabidiol, single 20 mg/kg oral, fed, mean ± SD",15.5 ± 4.31 ng·h/mL
same,AUC(0-t),"[3]; AUC0-72, cannabidiol, single 20 mg/kg oral, fasted, mean ± SD",1.73 ± 1.89 ng·h/mL
same,AUC(0-t),"[3]; AUC0-72, cannabidiol, single 20 mg/kg oral, fed, mean ± SD",10.1 ± 3.42 ng·h/mL
same,AUC(0-t),"[3]; AUC0-96, cannabidiol, single 20 mg/kg oral, fasted, mean ± SD",1.35 ± 1.73 ng·h/mL
same,AUC(0-t),"[3]; AUC0-96, cannabidiol, single 20 mg/kg oral, fed, mean ± SD",7.86 ± 2.44 ng·h/mL
same,AUC(0-t),"[3]; AUC0-120, cannabidiol, single 20 mg/kg oral, fasted, mean ± SD",0.867 ± 1.34 ng·h/mL
same,AUC(0-t),"[3]; AUC0-120, cannabidiol, single 20 mg/kg oral, fed, mean ± SD",6.36 ± 2.24 ng·h/mL
same,AUC(0-inf),"[3]; AUC0-inf, cannabidiol, single 20 mg/kg oral dose of cannabidiol solution, fasted, mean",360 ng·h/mL
same,AUC(0-inf),"[3]; AUC0-inf, cannabidiol, single 20 mg/kg oral dose of cannabidiol solution, fed, mean",10100 ng·h/mL
same,AUC(0-t),"[3]; AUC0-t, cannabidiol, single 20 mg/kg oral dose of cannabidiol solution, fasted, mean",466 ng·h/mL
same,AUC(0-t),"[3]; AUC0-t, cannabidiol, single 20 mg/kg oral dose of cannabidiol solution, fed, mean",9650 ng·h/mL
same,Cmax,"[3]; Cmax, cannabidiol, single 20 mg/kg oral dose of cannabidiol solution, fasted, mean",27.3 ng/mL
same,Cmax,"[3]; Cmax, cannabidiol, single 20 mg/kg oral dose of cannabidiol solution, fed, mean",1560 ng/mL
same,Tmax,"[3]; cannabidiol, single 20 mg/kg oral dose of cannabidiol solution, fasted",12 h
same,Tmax,"[3]; cannabidiol, single 20 mg/kg oral dose of cannabidiol solution, fed",6 h
same,AUC(0-inf),"[3]; ln(AUC0-inf) Geometric Mean, cannabidiol, 20 mg/kg oral, Fasted, least squares geometric mean, period removed from model",326 ng·h/mL
same,AUC(0-inf),"[3]; ln(AUC0-inf) Geometric Mean, cannabidiol, 20 mg/kg oral, Fed, least squares geometric mean, period removed from model",9580 ng·h/mL
same,AUC(0-t),"[3]; ln(AUC0-t) Geometric Mean, cannabidiol, 20 mg/kg oral, Fasted, least squares geometric mean",669 ng·h/mL
same,AUC(0-t),"[3]; ln(AUC0-t) Geometric Mean, cannabidiol, 20 mg/kg oral, Fed, least squares geometric mean",9210 ng·h/mL
same,Cmax,"[3]; ln(Cmax) Geometric Mean, cannabidiol, 20 mg/kg oral, Fasted, least squares geometric mean",44.5 ng/mL
same,Cmax,"[3]; ln(Cmax) Geometric Mean, cannabidiol, 20 mg/kg oral, Fed, least squares geometric mean",1390 ng/mL
